In patent publication US8981149B2, “Compounds modulating the hedgehog protein signaling pathway, marked forms thereof, and applications” (Centre National De La Recherche Scientifique, priority 2011, dated 2015):
Like-named read-outs stand apart in the source and are kept apart here.

Columns and labels:
[1] = test system: C3H10T1/2 cells; experiment: Differentiation of C3H10T1/2 cells induced by SAG, alkaline phosphatase (AP) activity; assay type: cell-based, mouse; settings: Mus musculus, C3H 10T1/2
Protocol: The test compounds of formula (I) were dissolved in dimethylsulfoxide up to a concentration of 10 mM, then stored at a temperature of −20° C. until used.
The line of C3H10T1/2 pluripotent fibroblast cells (ATCC) was cultured in the conditions recommended by the ATCC. These cells were activated using 0.1 μM of SAG according to the methods described by Chen et al., Proc. Natl. Acad. Sci. USA, 2002, 99, 14071 and Frank-Kamenetsky et al., J. Biol., 2002, 1, 10.
Activation by SAG causes differentiation of the cell line and allows it to express alkaline phosphatase (AP). It was thus possible to measure the activity of the Hedgehog protein signalling pathway via measurement of the alkaline phosphatase (AP) activity.
The C3H10T1/2 cells were seeded on 96-well plates at a density of 5.10^3 cells per well, 24 hours before adding the test compounds at a concentration varying from 1 nM to 30 μM and in the presence of 0.1 μM of SAG, using DMEM (Dulbecco's Modified Eagle's Medium) with 10% fetal calf serum as culture medium. The tests were carried out in quadruplicate. The plates were then incubated for 5 to 6 days at a temperature of 37° C. under 5% CO2 atmosphere. The cells were then washed in cold phosphate buffer (“Phosphate Buffer Serum”: PBS), then lysed by sonication at 4° C. in 50 μL of a solution containing 0.9% of NaCl and 0.2% of Triton X-100.
Measurement of the alkaline phosphatase (AP) activity in the lysates thus obtained was then performed according to the method described by Pepinsky et al. (J. Biol. Chem., 1998, 273, 14037). After adding 100 μL of reaction buffer (200 mM Tris-HCl; pH 10.5; 0.4 M of 2-amino-2-methylpropanol and 8 mM of MgCl2) and 50 μL of substrate (4 mM of p-nitrophenyl disodium phosphate), the lysates were incubated at 37° C. for 30-60 min, then the optical density was read at a wavelength of 415 nm.

[2] = molecular target: T1, human Smo receptor (Homo sapiens, UniProt Q99835); experiment: Competition with bodipy-cyclopamine (BC) binding in HEK-hSmo cells
T1 construct: expressed in transfected cells
Protocol: Cells of the HEK293 line stably transfected with the human Smo receptor are used. The experiment was conducted according to the protocol described in Roudaut et al., Mol. Pharmacol. 79: 453-460, 2011.
At the end of the incubation, the cells are fixed and stained with DAPI, a fluorescent molecule with high affinity for DNA which makes it possible to visualize the nuclei in blue in fluorescence microscopy.

T1 sequence (Q99835 28-787): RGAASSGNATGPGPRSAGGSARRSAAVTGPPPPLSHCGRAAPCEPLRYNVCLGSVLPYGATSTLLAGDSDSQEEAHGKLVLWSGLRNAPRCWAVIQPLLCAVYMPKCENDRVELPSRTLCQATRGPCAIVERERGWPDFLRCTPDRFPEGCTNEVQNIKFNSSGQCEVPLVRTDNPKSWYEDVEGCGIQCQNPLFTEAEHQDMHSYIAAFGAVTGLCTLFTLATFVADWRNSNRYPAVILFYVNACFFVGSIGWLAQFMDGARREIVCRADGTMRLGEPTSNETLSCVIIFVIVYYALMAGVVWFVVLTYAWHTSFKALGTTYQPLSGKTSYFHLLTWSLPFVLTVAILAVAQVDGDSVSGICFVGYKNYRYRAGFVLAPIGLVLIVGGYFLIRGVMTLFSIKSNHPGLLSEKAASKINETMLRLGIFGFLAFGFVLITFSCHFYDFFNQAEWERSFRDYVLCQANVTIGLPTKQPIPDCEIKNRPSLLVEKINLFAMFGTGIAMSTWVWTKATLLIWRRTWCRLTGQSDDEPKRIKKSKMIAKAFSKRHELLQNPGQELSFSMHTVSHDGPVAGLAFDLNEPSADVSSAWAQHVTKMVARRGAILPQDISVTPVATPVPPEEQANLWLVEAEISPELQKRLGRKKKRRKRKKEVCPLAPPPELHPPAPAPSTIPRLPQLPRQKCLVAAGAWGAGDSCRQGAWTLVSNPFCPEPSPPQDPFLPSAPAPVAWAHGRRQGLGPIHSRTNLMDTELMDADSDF

IC50 ([1]; AP activity, differentiation induced by SAG (0.1 μM), read-out: IC50 ± SEM, C3H10T1/2 cells (2)): 6 ± 1 nM
IC50 ([1]; SAG 0.1 μM, Mean ± SEM, n ≧ 3, read-out: IC50, differentiation of C3H10T1/2 cells): 6 ± 1 nM
IC50 ([1]; after induction by SAG at 0.1 μM, read-out: IC50, inhibition of alkaline phosphatase (AP) activity, differentiation of C3H10T1/2 cells): 6 ± 1 nM
Block of the binding of BC to HEK-hSmo cells, in words ([2]; BC 5 nM, 2 hours): very similar and high
IC50 ([2]; bodipy-cyclopamine (5 nM), HEK-hSmo cells, read-out: IC50 ± SEM, BC binding (4)): 8 ± 1 nM
SMILES: COc1cc(C(=O)NC(=N)Nc2ccc(C)c(NC(=O)c3ccc(CCc4ccccc4)cc3)c2)cc(OC)c1OC.Cl [Compound 7d, 3,4,5-trimethoxy-N—(N-(4-methyl-3-(4-phenethylbenzamido)phenyl)carbamimidoyl)benzamide hydrochloride]
